Data from ChEMBL document CHEMBL6109064, “Functional and structural polypharmacology of indazole-based privileged ligands to tackle the undruggability of membrane transporters” (Eur J Med Chem, 2025).

Legend:
[1] = test system: MDA-MB-231; assay: Cytotoxicity against human MDA-MB-231 cells assessed as inhibition of cell growth by MTT assay; assay type: functional
[2] = test system: A549; assay: Cytotoxicity against MCT1 expressing human A549 cells assessed as inhibition of cell growth incubated for 72 hrs by MTT assay; assay type: functional
[3] = target: T1, Broad substrate specificity ATP-binding cassette transporter ABCG2 (Homo sapiens, UniProt Q9UNQ0); assay: Inhibition of ABCG2 (unknown origin) expressed in dog MDCK-II-BCRP cells assessed as increase in pheophorbide A fluorescence intensity using pheophorbide as tracer preincubated for 30 mins followed by pheophorbide addition and measured for 180 mins by flow cytometry; assay type: cell-based
T1 sequence (Q9UNQ0 whole entry): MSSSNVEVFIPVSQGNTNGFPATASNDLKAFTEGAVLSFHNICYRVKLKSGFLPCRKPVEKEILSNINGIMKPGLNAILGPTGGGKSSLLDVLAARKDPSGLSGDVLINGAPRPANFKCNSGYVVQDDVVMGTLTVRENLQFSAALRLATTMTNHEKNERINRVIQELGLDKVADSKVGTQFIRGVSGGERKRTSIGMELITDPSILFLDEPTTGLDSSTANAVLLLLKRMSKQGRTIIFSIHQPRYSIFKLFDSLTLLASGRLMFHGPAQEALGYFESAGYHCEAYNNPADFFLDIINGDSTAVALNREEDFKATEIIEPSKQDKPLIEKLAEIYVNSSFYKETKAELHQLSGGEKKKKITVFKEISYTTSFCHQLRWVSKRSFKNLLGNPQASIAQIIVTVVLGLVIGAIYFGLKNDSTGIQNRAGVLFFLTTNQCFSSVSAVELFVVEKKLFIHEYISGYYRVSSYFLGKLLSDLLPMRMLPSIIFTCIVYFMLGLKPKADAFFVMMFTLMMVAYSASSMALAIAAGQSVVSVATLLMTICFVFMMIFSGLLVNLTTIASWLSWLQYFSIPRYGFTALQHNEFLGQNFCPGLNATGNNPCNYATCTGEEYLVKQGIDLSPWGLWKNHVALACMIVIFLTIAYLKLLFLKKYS

[4] = target: T2, Solute carrier family 22 member 3 (Homo sapiens, UniProt O75751); assay: Inhibition of OCT3 (unknown origin) expressed in HEK293 cells assessed as inhibition of ASP+ uptake incubated for 5 mins by fluorescence based analysis; assay type: cell-based
T2 sequence (O75751 whole entry): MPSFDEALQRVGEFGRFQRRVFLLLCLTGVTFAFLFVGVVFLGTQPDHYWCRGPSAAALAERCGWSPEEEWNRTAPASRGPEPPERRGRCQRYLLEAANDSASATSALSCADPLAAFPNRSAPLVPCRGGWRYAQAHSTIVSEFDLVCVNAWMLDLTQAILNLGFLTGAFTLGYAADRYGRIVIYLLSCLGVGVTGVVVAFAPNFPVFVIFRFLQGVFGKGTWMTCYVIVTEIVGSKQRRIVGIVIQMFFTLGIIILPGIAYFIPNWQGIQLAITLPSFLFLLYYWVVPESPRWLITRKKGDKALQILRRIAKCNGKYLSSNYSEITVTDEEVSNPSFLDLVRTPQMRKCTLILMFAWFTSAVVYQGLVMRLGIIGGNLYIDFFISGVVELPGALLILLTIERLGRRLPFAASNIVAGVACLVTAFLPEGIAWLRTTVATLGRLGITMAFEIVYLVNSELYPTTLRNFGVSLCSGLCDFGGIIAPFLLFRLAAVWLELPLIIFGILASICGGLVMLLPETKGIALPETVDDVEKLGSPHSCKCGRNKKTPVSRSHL

[5] = target: T3, Monocarboxylate transporter 4 (Homo sapiens) (UniProt O15427); assay: Reversal of MCT4-mediated multidrug resistance in human MDA-MB-231 cells assessed as fold increase in doxorubicin-mediated cytotoxicity incubated for 72 hrs in presence of doxorubicin by MTT assay relative to control; assay type: cell-based
T3 sequence (whole entry): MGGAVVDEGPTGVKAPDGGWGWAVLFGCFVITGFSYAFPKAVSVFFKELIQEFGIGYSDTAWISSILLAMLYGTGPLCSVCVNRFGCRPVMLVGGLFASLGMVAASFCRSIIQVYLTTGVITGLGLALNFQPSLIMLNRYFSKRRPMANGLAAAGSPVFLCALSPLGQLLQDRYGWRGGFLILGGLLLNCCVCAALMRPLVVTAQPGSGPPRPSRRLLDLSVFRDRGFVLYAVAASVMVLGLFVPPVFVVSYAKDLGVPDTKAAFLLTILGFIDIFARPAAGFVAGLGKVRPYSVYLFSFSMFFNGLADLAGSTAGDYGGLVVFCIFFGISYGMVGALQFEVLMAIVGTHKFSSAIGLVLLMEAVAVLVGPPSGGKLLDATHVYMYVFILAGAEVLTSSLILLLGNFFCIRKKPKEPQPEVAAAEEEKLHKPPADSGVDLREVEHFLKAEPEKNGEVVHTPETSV

[6] = target: T1, Broad substrate specificity ATP-binding cassette transporter ABCG2; assay: Ratio of IC50 for inhibition of ABCG2 (unknown origin) expressed in dog MDCK-II-BCRP cells using Hoechst 33342 as tracer to EC50 for reversal of ABCG2 (unknown origin)-mediated multidrug resistance transfected in dog MDCK-II-BCRP cells in presence of SN-38; assay type: cell-based
[7] = test system: MCF7; assay: Cytotoxicity against MCT1 expressing human MCF7 cells assessed as inhibition of cell growth incubated for 72 hrs by MTT assay; assay type: functional
[8] = target: T1, Broad substrate specificity ATP-binding cassette transporter ABCG2; assay: Ratio of IC50 for inhibition of ABCG2 (unknown origin) expressed in dog MDCK-II-BCRP cells using pheophorbide as tracer to EC50 for reversal of ABCG2 (unknown origin)-mediated multidrug resistance transfected in dog MDCK-II-BCRP cells in presence of SN-38; assay type: cell-based
[9] = target: T4, Monocarboxylate transporter 1 (Homo sapiens, UniProt P53985); assay: Inhibition of MCT-1 in human A549 cells assessed as potentiation of 3-BP-mediated cytotoxicity by measuring decrease in cell viability incubated for 72 hrs in presence of 3-BP by MTT assay; assay type: cell-based
T4 sequence (P53985 whole entry): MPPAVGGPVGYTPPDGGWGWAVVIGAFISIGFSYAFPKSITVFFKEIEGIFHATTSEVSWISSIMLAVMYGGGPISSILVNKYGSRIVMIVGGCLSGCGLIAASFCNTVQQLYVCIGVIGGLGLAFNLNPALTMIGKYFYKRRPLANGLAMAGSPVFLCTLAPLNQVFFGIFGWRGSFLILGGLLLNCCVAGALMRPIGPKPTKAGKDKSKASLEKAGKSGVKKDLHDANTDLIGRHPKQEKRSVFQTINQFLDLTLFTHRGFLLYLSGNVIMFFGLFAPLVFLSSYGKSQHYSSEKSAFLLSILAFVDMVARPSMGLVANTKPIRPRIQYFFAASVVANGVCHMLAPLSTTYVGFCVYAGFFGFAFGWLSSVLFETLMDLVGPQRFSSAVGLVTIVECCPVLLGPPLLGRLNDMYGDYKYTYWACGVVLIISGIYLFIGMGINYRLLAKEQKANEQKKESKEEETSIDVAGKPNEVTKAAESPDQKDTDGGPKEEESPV

[10] = target: T1, Broad substrate specificity ATP-binding cassette transporter ABCG2; assay: Reversal of ABCG2 (unknown origin)-mediated multidrug resistance transfected in dog MDCK-II-BCRP cells assessed as increase in SN-38-mediated cytotoxicity incubated for 72 hrs in presence of SN-38 by MTT assay; assay type: cell-based

| IC50 [3] | IC50 ([4]; hek293) | IC50 ([4]; read-out: IC50) | SMILES | GI50 [1] | GI50 [2] | fold change (FC) [5] | Ratio IC50/EC50 [6] | GI50 [7] | Ratio IC50/EC50 [8] | IC50 [9] | EC50 [10] |
| --- | --- | --- | --- | --- | --- | --- | --- | --- | --- | --- | --- |
| 1.17 µM | Not_active |  | O=C(Cn1nc(C(=O)Nc2ccccn2)c2ccccc21)Nc1cc(Cl)ccc1Cl | 29.9 µM | 37.1 µM | 3.52 |  |  |  |  |  |
| 14.2 µM |  | 111 µM | O=C(Cn1nc(C(=O)Nc2cccnc2)c2ccccc21)Nc1ccc(Cl)cc1 | 30 µM | 28.6 µM | 3.85 | > 5 | 10.8 µM | > 13 |  |  |
| 1.33 µM | Not_active |  | COc1cccc(NC(=O)Cn2nc(C(=O)Nc3cccc(OC)c3)c3ccccc32)c1 |  |  |  |  |  |  | Not_active | Not_active |
| 1.66 µM |  | 76.4 µM | COc1cccc(NC(=O)c2nn(CC(=O)Nc3ccccc3OC)c3ccccc23)c1 |  |  |  |  |  |  | Not_active |  |
